Reference: article PMC6748410, “A phase 2 study of an oral mTORC1/mTORC2 kinase inhibitor (CC-223) for non-pancreatic neuroendocrine tumors with or without carcinoid symptoms” (PLoS ONE, 2019)
Like-named read-outs stand apart in the source and are kept apart here.

Experiment: Plasma pharmacokinetics of CC-223 and metabolite M1 in patients with NET
Assay type: in vivo, human
Details: for CL/F / AUC / AUC(0-t) / Cmax / Vd/F: geometric mean (%CV, n); for Tmax / AUC / AUC(0-t) / Cmax / Vd/F: human, plasma; for Vd/F: read-out: Vz/F
Procedure: Blood for PK analysis was drawn on day 1 pre-dose and for up to 48 hours post-dose, and then on day 15 up to 8 hours post-dose. Urine on day 1 was collected within 30 minutes prior to dosing and at intervals up to 24 hours post-dose. Samples were assayed for CC-223 and the principal active metabolite (M1) using validated chiral liquid chromatography mass spectrometry. CC-223 PK parameters were calculated using dosing and sample collection times. Non-compartmental PK analysis was performed used WinNonlin Enterprise version 5.2 Model 200 and Model 210 (Certara, Princeton, NJ).

[1] = po, 30 mg/day, CC-223 30 mg/day oral, Day 1
[2] = po, 30 mg/day, CC-223 30 mg/day oral, Day 15, n = 1
[3] = po, 45 mg/day, CC-223 45 mg/day oral, Day 1

## CO[C@H]1CC[C@H](N2C(=O)CNc3ncc(-c4ccc(C(C)(C)O)nc4)nc32)CC1 [CC-223]
CC-223 30 mg/day oral, Day 1
  CL/F: 34.0 (34.2, n = 3) L/h
  Vd/F: 290 L
CC-223 45 mg/day oral, Day 1
  CL/F: 19.8 (20.1, n = 2) L/h
  Vd/F: 125 L
oral, regardless of starting dose, read-out: Median Tmax
  Tmax: 1.5 to 3 h
[1]
  AUC: 819 ng·h/mL
  AUC(0-t): 840 ng·h/mL
  Cmax: 133 ng/mL
[2]
  AUC: 776 ng·h/mL
  AUC(0-t): 776 ng·h/mL
  Cmax: 154 ng/mL
po, 30 mg/day, median (min, max, n), CC-223 30 mg/day oral, Day 1, read-out: Tmax
  Tmax: 1.7 h
po, 30 mg/day, median (min, max, n), CC-223 30 mg/day oral, Day 15, read-out: Tmax
  Tmax: 1.5 h
[3]
  AUC(0-t): 1800 ng·h/mL
  Cmax: 347 ng/mL
po, 45 mg/day, CC-223 45 mg/day oral, Day 1, n = 1
  AUC: 1940 ng·h/mL
po, 45 mg/day, median (min, max, n), CC-223 45 mg/day oral, Day 1, read-out: Tmax
  Tmax: 1.52 h
